The test system of data set [1] is Salmonella typhimurium ATCC 14028 attached to human buccal epithelial cells. The data set is classed as cell-based. The settings on record: for adherence, mean value of attached bacteria: Table A-1. Here is the method: Studies were conducted on the attachment of Salmonella typhimurium to human buccal epithelial cells using the modified procedure of Boussard et al., International J. Pharmaceutics 53: 253-256 (1989). In this study, the activities of cationic and anionic surfactant compounds as well as certain chelating agents were compared on the detachment of S. typhimurium from epithelial cells.
To this end, bacteria were grown on nutrient agar for 16 hours at 37° C. The cells were suspended in 0.008 M phosphate buffered saline (PBS) at pH 7.2 and washed two times at 4500 rpm for 10 minutes. The last suspension was diluted in PBS to obtain a cell concentration of 0.5 to 1×10^9 cells/ml. Human epithelial cells were obtained by swabbing the buccal surface of a healthy, nonsmoking donor. […] The number of living cells was estimated and the suspension diluted to 0.5 to 1×10^5 cells/ml.
Next, the suspension of the human buccal cells was mixed with an equal volume of the bacterial suspension (3.0 ml), or PBS (0.8 ml). Contact was allowed for 1.5 hours at 35° C. under agitation. The mixtures were then centrifuged for 10 minutes at 4500 rpm. Each suspension, 1.0 ml, was transferred into Eppendorf vials and washed with PBS at 1500 rpm for 10 minutes. After the washing, the cells were treated with 1.0 ml PBS or 1.0 ml of the test chemical solution. Treatment was performed by suspending and vortexing on a low speed for 30 seconds followed by centrifugation at 1500 rpm for 10 minutes.
After the treatment, the cells were washed once with PBS and then 20 μl of erythrosin B was added to each vial. The suspension was centrifuged at 1500 rpm for 10 minutes, and the cells were washed twice under the same conditions. The final pellet was suspended in 300 μl of PBS. This suspension was spread out onto microscope slides and dried overnight at room temperature. After counter staining with methylene blue, the slides were microscopically examined under oil immersion.

In data set [2] the test system is Salmonella typhimurium on chicken skin. Kind of data set: Prevention of attachment of Salmonella on excised chicken skin (Table F5). The settings on record: for CFU/ml on XLD agar: rinse water. The method, then: To determine the ability of surfactants to inhibit attachment or produce detachment of Salmonella, the following experiment was conducted. A hole was bored into the bottom of a 150 ml specimen cup. Chicken skin was excised from a drum stick and then placed over the cap of the specimen cup, and then the cap was screwed on. S. typhimurium was diluted 1:5000 with PBS or a surfactant. The surfactants were diluted appropriately. The skin was then inoculated with the solution containing the S. typhimurium and the surfactant for 30 minutes at room temperature.
Following incubation, the skin was washed. The rinse water was diluted appropriately in PBS and then plated onto XLD pour plates. The S. typhimurium was counted and reported as CFU/ml. The skin was swabbed so as to remove any remaining S. typhimurium using a nitroellulose lift and the CFU's/ml on the lift were also counted.

For data set [3] the test system is unchanged. Kind of data set: Effect of surfactants on Salmonella attached to chicken skin, drumsticks (Tables F1-F4). The settings on record: 4° C. The method, then:
The following experiments utilizing chicken legs were conducted to determine the killing potential of a variety of surfactants against Salmonella on the skin and free in solutions. To this end, chicken legs obtained from the Department of Agriculture at the University of Arkansas, Fayetteville, were incubated for thirty minutes at room temperature with a 1:5000 dilution of Salmonella typhimurium. The chicken legs were removed five at a time and then rinsed twice in tap water to remove the unattached and excess Salmonella. The rinse water was sampled, diluted, and then plated onto XLD pour plates. […] The chicken legs were then removed and rinsed twice in tap water to remove the released Salmonella and excess chemicals. Rinses were then sampled, diluted, and then plated onto XLD pour plates.
The chicken legs were then individually washed with 100 ml sterile double distilled water, and then shaken fifty times. Samples of the wash H2 O were diluted and plated onto XLD pour plates. The chicken legs were further swabbed after the washing step above. The swabs were then plated onto the XLD plates. A set of wash samples were enriched with TT Broth Base Hajna and then plated onto XLD plates.
All of the samples were plated in 1 ml aliquots onto XLD pour plates. A positive control sample incubated in sterile double distilled water at 4° C. was run for each of the aforementioned conditions. Treatments occurred at both 4° C. and 25° C. The data is reported as the mean number of CFU/ml. The ratio in the table represents the number of chicken legs out of a sample of ten chicken legs producing the notated number of colonies, as indicated by the +, ++, +++, or ++++.

For data set [4], the system named is Salmonella typhimurium TA98. Kind of data set: Salmonella reversion assay, TA98. The method, then: (§1) Test strains TA98 and TA100 were obtained from Bruce N. Ames (University of California, Berkley, Calif.). Mutagenicities were determined both in the absence of and in the presence of a mammalian liver S9 activating system. S9 is the 9000×g supernatant prepared from liver homogenates from Aroclor 1254 stimulated male Sprague Dawley rats. The S9 was purchased from Molecular Toxicology, Inc. (Anapolis, Md.).
(§2) Bacterial broth cultures were grown overnight at 37° with shaking in Oxoid Broth #2. For assays in the absence of S9, a 0.5 ml aliquot of 100 mM Sodium Phosphate Buffer, pH 7.4, was added to sterile 13×100 mm capped culture tubes. For assays in the presence of S9, a 0.5 ml aliquot of 10% S9 mix was added. The S9 mix consisted of 8 mM magnesium chloride, 33 mM potassium chloride, 5 mM glucose-6-phosphate, 4 mM NADP, 100 mM sodium phosphate, pH 7.4 and S9 in a concentration of approximately 1.46 mg protein/ml.
(§3) The culture tubes were placed in an ice bath and 0.1 ml of the bacterial suspension and 0.1 ml of a DMSO solution of the test compound were added. The mixture was vortexed gently and incubated at 37° for 20 minutes with shaking in a water bath. Molten top agar (2.0 ml) containing 0.5 mM histidine HCl and 0.5 mM biotin were added, and the mixture was vortexed gently and poured onto a minimal glucose plate. After allowing the agar to solidify, the plates were inverted and placed in a 37° incubator in the dark for 48 hours. The revertant (mutant) colonies were counted and the background lawn was examined on all plates. A response that was two times that of the DMSO solvent control was considered a positive response.

Data set [5] relates to Salmonella typhimurium TA98. Description: Salmonella reversion assay after heating at 205° C., TA98. The data set is classed as cell-based. Here is the method:
(§4) Test strains TA98 and TA100 were used. Again, mutagenicities were determined both in the absence and in the presence of the mammalian liver S9 activating system.
(§5) A response that was two times that of the solvent control was considered a positive response.

Data set [6] has as its system Salmonella typhimurium TA100. Description: Salmonella reversion assay after heating at 205° C., TA100. In kind it is cell-based. Here is the method:
as §4, §5

The subject of data set [7] is Salmonella typhimurium TA100. Kind of data set: Salmonella reversion assay, TA100. The method, then: as §1, §2, §3
In data set [8] the test system is Salmonella typhimurium ATCC 14028. Description: Effect on viability of Salmonella in suspension (Tables D-1 to D-3). The data set is classed as cell-based. The settings on record: for bacterial viability: Table D-3. The method, then:
EC50 values for four of the compounds were calculated from the bactericidal activity of the compounds as a function of molar concentration by a nonlinear regression algorithm.
In addition to the quaternary ammonium compounds, the antimicrobial activities of chelating agents Na2 -EDTA and EGTA were investigated. Na2 -EDTA was purchased from the Sigma Chemical Company (St. Louis, Mo.). Na2 -EDTA was dissolved in 0.04 M PPB prior to the assay and further dilutions were made in the same buffer.
EGTA was purchased from the Aldrich Chemical Company (Milwaukee, Wis.). EGTA was dissolved in 0.04 M PPB according to the procedure described by Harafuji and Ogawa (J. Biochem. 87:1305-1312 (1980)). After heating EGTA for 15 minutes at 80° C., the pH was adjusted to 7.0 by addition of NaOH. EGTA was filter-sterilized using a 0.2 μm Acro disc filter (Gelman Sciences; Ann Arbor, Mich.) prior to the assay. Further dilutions were made in sterile PPB.

Results on six molecules are retold here after patent publication US5366983A, “Use of quaternary ammonium compounds to remove salmonella contamination from meat products” (The Board of Trustees of The University of Arkansas, priority 1992, dated 1994).

Entries after “also recorded” stand apart in the source; their conditions may differ. Like-named read-outs stand apart in the source and are kept apart here.

Regarding `CCCCCCCCCCCCCCCC[n+]1ccccc1` [CPB, cetylpyridinium bromide], the entries for the “adherence, mean value of attached bacteria” value in data set [1] (10 ug/ml), in data set [1] (25 ug/ml) and in data set [1] (50 ug/ml) were 28 ± 28, 23 ± 17 and 25 ± 10, respectively.

Take `C[C@H](CCC(=O)O)[C@H]1CC[C@H]2[C@@H]3CC[C@@H]4C[C@H](O)CC[C@]4(C)[C@H]3C[C@H](O)[C@]12C` [Deoxycholic Acid, reference compound]: the “CFU/ml on XLD agar” value in data set [2] (30 minutes at room temperature) came out at 90 CFU/ml. Besides, in data set [3] (0.1%), the “Enrichment, chicken legs out of ten” value is listed as 10/10; the “Rinse H2O” value was “+ (1-10)”; the “Surfactant Solution” value is on record as “++ (11-100)”; the “Swabs, chicken legs producing the notated number of colonies” value (“Swabs … of colonies” below) is reported as 10/10. In data set [3] (0.1%), the “Swabs, colonies” value is listed as “++ (11-100)”; the “Wash H2O, chicken legs producing the notated number of colonies” value (shortened to “Wash H2O … of colonies”) was 10/10; the “Wash H2O, colonies” value is on record as “++ (11-100)”. Besides, in data set [3] (0.5%), the “Enrichment, chicken legs out of ten” value was 10/10; the “Rinse H2O” value is listed as “+ (1-10)”; the “Surfactant Solution” value is on record as “+ (1-10)”; the “Swabs … of colonies” value was 10/10. Further, in data set [3] (0.5%), the “Swabs, colonies” value is listed as “+ (1-10)”; the “Wash H2O … of colonies” value is 10/10; the “Wash H2O, colonies” value was “++ (11-100)”. Moreover, in data set [3] (1.0%), the “Enrichment, chicken legs out of ten” value was 10/10; the “Rinse H2O” value was “+ (1-10)”; the “Surfactant Solution” value is listed as “++ (11-100)”; the “Swabs … of colonies” value is 9/10. In data set [3] (1.0%), the “Swabs, colonies” value is recorded as “++ (11-100)”; the “Wash H2O … of colonies” value is 10/10; the “Wash H2O, colonies” value is on record as “++ (11-100)”.

In the case of `O=C1NCCN1c1ncc([N+](=O)[O-])s1` [Niridazole, reference compound], the control reversion frequency came to 358 ± 19 Revertants/plate in data set [4] (TA98, -S9, 0.2 μg/plate); 126 ± 7 Revertants/plate in data set [5] (TA98, -S9, 0.2 μg/plate); 729 ± 30 Revertants/plate in data set [6] (TA100, -S9, 0.2 μg/plate); 637 ± 57 Revertants/plate in data set [7] (TA100, -S9, 0.2 μg/plate).

`CC(C)(C)CC(C)(C)c1ccc(OCCOCC[N+](C)(C)Cc2ccccc2)cc1` [Benzethonium Chloride, reference compound]: the “preventing attachment of S. typhimurium on chicken skin (in words)” value in data set [2] is reported as “most effective in preventing Salmonella contamination of chicken skin”. Besides, in data set [2] (30 minutes at room temperature), the “CFU/ml on XLD agar” value came out at 10 CFU/ml. The “Nitrocellulose lift (# of colonies)” value in data set [2] (skin, 30 minutes at room temperature) was 250 # of colonies. Also, in data set [3] (0.1%), the “Enrichment, chicken legs out of ten” value is recorded as 2/10; the “Rinse H2O” value was “+ (1-10)”; the “Surfactant Solution” value was determined as 0 CFU/ml; the “Swabs … of colonies” value is listed as 9/10. In data set [3] (0.1%), the “Swabs, colonies” value is reported as “++ (11-100)”; the “Wash H2O … of colonies” value is recorded as 1/10; the “Wash H2O, colonies” value was “+ (1-10)”. In data set [3] (0.5%), the “Enrichment, chicken legs out of ten” value is given as 0/10; the “Rinse H2O” value is given as “+ (1-10)”; the “Surfactant Solution” value worked out at 0 CFU/ml; the “Swabs … of colonies” value is 8/10. Moreover, in data set [3] (0.5%), the “Swabs, colonies” value is listed as “++ (11-100)” and the “Wash H2O … of colonies” value is given as 0/10. In data set [3] (1.0%), the “Enrichment, chicken legs out of ten” value is given as 0/10; the “Rinse H2O” value was “+ (1-10)”; the “Surfactant Solution” value came out at 0 CFU/ml; the “Swabs … of colonies” value is 5/10. Further, in data set [3] (1.0%), the “Swabs, colonies” value is given as “++ (11-100)” and the “Wash H2O … of colonies” value is listed as 0/10.

As for `O=C(O)CN(CCOCCOCCN(CC(=O)O)CC(=O)O)CC(=O)O` [EGTA, reference compound], the bacterial viability in data set [8] (1,250 μg/ml) is 1.55 ± 0.09 × 10^9 CFU/ml; in data set [8] (2,500 μg/ml), 1.45 ± 0.03 × 10^9 CFU/ml; in data set [8] (5,000 μg/ml), 1.51 ± 0.18 × 10^8 CFU/ml. For the same molecule, the “bactericidal effect against S. typhimurium (in words)” value in data set [8] (viability testing in suspension) was “ineffective; also recorded: no bactericidal effect”. Also, the “effect on bacteria attached to the epithelial cells (in words)” value in data set [1] (chelating agents, Na2-EDTA at 1250 μg/ml) is “no significant effect”.

As to `Nc1ccc2cc3ccccc3cc2c1` [2aminoanthracene, reference compound], the control reversion frequency in data set [4] (TA98, +S9, 2.5 μg/plate) worked out at 901 ± 90 Revertants/plate; in data set [5] (TA98, +S9, 2.5 μg/plate), 909 ± 85 Revertants/plate; in data set [6] (TA100, +S9, 2.5 μg/plate), 1103 ± 84 Revertants/plate; in data set [7] (TA100, +S9, 2.5 μg/plate), 1497 ± 68 Revertants/plate.
